These results are taken from US7241812B2, “Methods and compositions for modulating sphingosine-1-phosphate (S1P) receptor activity” (Praecis Pharmaceuticals, Inc., priority 2004, dated 2007).

One assay deals with T1, S1P1 receptor (Homo sapiens, UniProt P21453).
T1 construct: expressed in transfected cells; host or cells: HEK 293 T cells (crude membrane preparation)
The assay can be described thus: Binding to S1P1 receptor, [33P]sphingosine 1-phosphate displacement on membranes of transfected HEK 293 T cells. To be noted: 2.5 pM [33P]sphingosine 1-phosphate, 60 minutes at room temperature. How it is done:
(§1) The ability of several of the compounds described herein to bind to the S1P1 or S1P3 receptor was also tested as follows.
(§2) For the membrane preparation, plasmid DNA was transfected into HEK 293 T cells using the FuGENE 6 transfection protocol (publicly available by Roche). Briefly, subconfluent monolayers of HEK 293 T cells were transfected with the DNA mixture containing FuGENE 6 (using a 1:3 ratio). The dishes containing the cells were then placed in a tissue culture incubator (5% CO2, 37° C.). The cells were harvested 48 hours after addition of the DNA by scraping in HME buffer (in mM: 20 HEPES, 5 MgCl2, 1 EDTA, pH 7.4, 1 mM PMSF) containing 10% sucrose on ice, and disrupted using a Dounce homogenizer. After centrifugation at 800×g, the supernatant was diluted with HME without sucrose and centrifuged at 17,000×g for 1 hour. This crude membrane pellet was resuspended in HME with sucrose, aliquoted, and snap-frozen by immersion in liquid nitrogen. The membranes were stored at −70 C. Protein concentration was determined spectroscopically by Bradford protein assay.
(§3) For the binding assay, [^33P]sphingosine 1-phosphate (obtained from American Radiolabeled Chemicals, Inc) was added to membranes in 200 μl in 96-well plates with assay concentrations of 2.5 pM [^33P]sphingosine 1-phosphate, 4 mg/ml BSA, 50 mM HEPES, pH 7.5, 100 mM NaCl, 5 mM MgCl2, and 5 μg of protein. Binding was performed for 60 minutes at room temperature with gentle mixing and terminated by collecting the membranes onto GF/B filter plates. After drying the filter plates for 10 minutes, 50 μl of Microscint 40 was added to each well, and filter-bound radionuclide was measured on a Packard Top Count. Nonspecific binding was defined as the amount of radioactivity remaining in the presence of excess of unlabeled S1P.

For another assay, the target named is T2, S1P3 receptor (Homo sapiens, UniProt Q99500).
T2 construct: expressed in transfected cells; host or cells: HEK 293 T cells (crude membrane preparation)
The assay can be described thus: Binding to S1P3 receptor, [33P]sphingosine 1-phosphate displacement on membranes of transfected HEK 293 T cells. To be noted: 2.5 pM [33P]sphingosine 1-phosphate, 60 minutes at room temperature. How it is done: as §1, §2, §3

pIC50: −log10 of the molar value.

T1 sequence (P21453 whole entry): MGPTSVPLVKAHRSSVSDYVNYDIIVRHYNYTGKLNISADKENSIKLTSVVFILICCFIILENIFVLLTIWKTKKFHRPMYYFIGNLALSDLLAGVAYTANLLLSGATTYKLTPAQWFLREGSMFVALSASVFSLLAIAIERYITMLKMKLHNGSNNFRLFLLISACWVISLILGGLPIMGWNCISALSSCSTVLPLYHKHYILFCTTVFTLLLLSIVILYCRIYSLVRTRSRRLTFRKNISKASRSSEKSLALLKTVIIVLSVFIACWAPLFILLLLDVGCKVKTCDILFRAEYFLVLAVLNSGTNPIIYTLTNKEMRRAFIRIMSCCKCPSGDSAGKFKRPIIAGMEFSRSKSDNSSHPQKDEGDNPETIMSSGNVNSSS
T2 sequence (Q99500 whole entry): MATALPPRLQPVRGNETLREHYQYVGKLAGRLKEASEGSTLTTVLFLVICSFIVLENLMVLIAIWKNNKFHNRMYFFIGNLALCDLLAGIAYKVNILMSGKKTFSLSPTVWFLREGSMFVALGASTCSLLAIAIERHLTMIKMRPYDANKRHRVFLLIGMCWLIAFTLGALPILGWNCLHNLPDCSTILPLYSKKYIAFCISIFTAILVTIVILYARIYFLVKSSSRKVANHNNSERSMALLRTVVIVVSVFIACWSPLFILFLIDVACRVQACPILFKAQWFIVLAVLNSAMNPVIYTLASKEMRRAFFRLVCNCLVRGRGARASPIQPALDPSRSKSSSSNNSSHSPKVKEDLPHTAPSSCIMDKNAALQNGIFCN

In general, pIC50 refers to the negative decadic logarithm of the IC50, by convention in mol/L. As for `C[C@](N)(CO)C(=O)Nc1ccc(Oc2ccccc2)cc1` [compound 129], the results for the pIC50 at S1P1 receptor and at S1P3 receptor were 7.75 and 5.20, respectively.
As for `COc1ccc(CCOc2ccc(NC(=O)[C@@](C)(N)CO)cc2)cc1OC` [compound 34], the values for the pIC50 on S1P1 receptor and at S1P3 receptor were 6.00 and under 5.00, respectively.
The like results for `C[C@](N)(COc1ccccc1)C(=O)Nc1ccc(Oc2ccccc2)cc1` [compound 130] were, in that order, 7.05 and under 5.00.
Regarding `C[C@](N)(CO)C(=O)Nc1ccc(OCCc2cccc(-c3ccccc3)c2)cc1` [compound 155], the pIC50 at S1P1 receptor and at S1P3 receptor was under 5.00 throughout.
In the case of `C[C@](N)(CO)C(=O)Nc1ccc(OCCc2ccc(-c3cccs3)cc2)cc1` [compound 158], the values for the pIC50 on S1P1 receptor and at S1P3 receptor were 6.82 and under 6.00, respectively.
For the compound `C[C@](N)(COP(=O)(O)O)C(=O)Nc1ccc(-c2cnn(Cc3ccccc3)c2)cc1` [compound 105], the pIC50 on S1P1 receptor is 5.70; on S1P3 receptor, under 5.00.
As for `CC(C)c1ccc(-c2ccc(CCOc3ccc(NC(=O)[C@@](C)(N)CO)cc3)cc2)cc1` [compound 150], the pIC50 on S1P1 receptor is 9.26; at S1P3 receptor, 5.30.
Turning to `CC(N)(CO)C(=O)Nc1ccc(OCCCCc2ccc(C(F)(F)F)cc2)cc1` (centres unmarked) [compound 141], the pIC50 was 7.92 at S1P1 receptor and 5.98 on S1P3 receptor.
Take `C[C@](N)(CO)C(=O)Nc1ccc(OCc2ccc(-c3ccccc3)cc2)cc1` [compound 153]: the pIC50 was 9.10 at S1P1 receptor and 6.55 on S1P3 receptor.
For `CCCCCNC(=O)c1ccc(NC(=O)[C@@H](N)[C@@H](C)O)cc1` [compound 128] the same measures were 9.08 and 6.80.
In the case of `C[C@](N)(CO)C(=O)Nc1ccc(-c2csc(-c3ccc(-c4ccccc4)cc3)n2)cc1` [compound 154], the pIC50 was 7.68 at S1P1 receptor and under 5.00 on S1P3 receptor.
For `CC(C)Oc1cccc(-c2ccc(NC(=O)[C@@](C)(N)CO)cc2)c1` [compound 145], the pIC50 on S1P1 receptor is 8.47; at S1P3 receptor, 5.70.
For `CCCCCCCCc1ccc(CCC2(N)COP(=O)(O)OC2)cc1` (centres unmarked) [compound 45] the same measures were 8.62 and 6.46.
Regarding `C[C@](N)(CO)C(=O)Nc1ccc(OCCc2ccc(-c3ccncc3)cc2)cc1` [compound 156], the pIC50 is 8.22 on S1P1 receptor and 5.49 on S1P3 receptor.
With `C[C@](N)(CO)C(=O)Nc1ccc(-c2cccc(OCc3ccccc3)c2)cc1` [compound 147], the pIC50 at S1P1 receptor was 6.78; on S1P3 receptor, 6.89.
Turning to `CCCOc1cccc(-c2ccc(NC(=O)[C@@](C)(N)CO)cc2)c1` [compound 144], the pIC50 is 5.62 at S1P1 receptor and under 5.00 at S1P3 receptor.
As for `C[C@](N)(CO)C(=O)Nc1ccc(Oc2ccc(F)cc2)cc1` [compound 139], the pIC50 was 8.60 at S1P1 receptor and 6.66 at S1P3 receptor.
Turning to `CCCCOc1ccc(Oc2ccc(NC(=O)[C@@](C)(N)CO)cc2)cc1` [compound 135], the pIC50 is 7.66 at S1P1 receptor and 5.60 on S1P3 receptor.
With `Cc1cc(NC(=O)[C@@](C)(N)CO)ccc1Oc1ccccc1` [compound 124], the pIC50 on S1P1 receptor is 7.82; on S1P3 receptor, 6.79.
Turning to `CCc1ccc(-c2ccc(CCOc3ccc(NC(=O)[C@@](C)(N)CO)cc3)cc2)cc1` [compound 46], the pIC50 is 6.60 at S1P1 receptor and 5.30 on S1P3 receptor.
On to `CCc1ccc(Oc2ccc(NC(=O)[C@@](C)(N)CO)cc2)cc1` [compound 134], for which the pIC50 is 6.94 at S1P1 receptor and 5.92 at S1P3 receptor.
On to `CCc1ccc(OC[C@](C)(N)C(=O)Nc2ccc(Oc3ccc(CC)cc3)cc2)cc1` [compound 131], for which the figures for the pIC50 on S1P1 receptor and on S1P3 receptor were 6.66 and 6.08, respectively.
Consider `C[C@](N)(CO)C(=O)Nc1ccc(Oc2ccc(Cl)cc2)cc1` [compound 138], for which the results for the pIC50 on S1P1 receptor and at S1P3 receptor were 5.42 and under 5.00, respectively.
As for `CCOc1ccc(-c2ccc(CCOc3ccc(NC(=O)[C@@](C)(N)CO)cc3)cc2)cc1` [compound 47], the pIC50 was 7.64 at S1P1 receptor and 5.30 at S1P3 receptor.
In the case of `C[C@](N)(CO)C(=O)Nc1ccc(OCCc2ccc(-c3ccc(Cl)cc3)cc2)cc1` [compound 49], the pIC50 on S1P1 receptor was 6.62; at S1P3 receptor, 5.10.
Take `CCCCCCCCc1ccc(OC2CN[C@H](CO)C2)cc1` (some centres unmarked) [compound 137]: the pIC50 at S1P1 receptor is 5.40; at S1P3 receptor it was under 5.00.
As to `COc1cccc(-c2ccc(NC(=O)[C@@](C)(N)CO)cc2)c1` [compound 142], the pIC50 on S1P1 receptor was 8.10; at S1P3 receptor, 6.50.
Turning to `CC(COc1ccc(NC(=O)[C@@](C)(N)CO)cc1)c1ccc(-c2ccccc2)c(F)c1` (some centres unmarked) [compound 160], the values for the pIC50 on S1P1 receptor and at S1P3 receptor were 6.30 and under 6.00, respectively.
On to `CCCCc1ccc(Oc2ccc(NC(=O)[C@@](C)(N)CO)cc2)cc1` [compound 133], for which the figures for the pIC50 on S1P1 receptor and on S1P3 receptor were 6.19 and under 5.00, respectively.
Turning to `CCCCCCCN(C)C(=O)c1ccc(NC(=O)[C@@H](N)[C@@H](C)O)cc1` [compound 126], the pIC50 at S1P1 receptor and at S1P3 receptor was under 5.00 each time.
Regarding `CCCCc1ccc(OC[C@](C)(N)C(=O)Nc2ccc(Oc3ccc(CCCC)cc3)cc2)cc1` [compound 132], the figures for the pIC50 on S1P1 receptor and on S1P3 receptor were 6.78 and 5.46, respectively.
At S1P1 receptor, `CCCCCCNC(=O)c1ccc(NC(=O)[C@@H](N)[C@@H](C)O)cc1` [compound 125] had a pIC50 of 5.70.
Turning to `COc1ccc(CCCCOc2ccc(NC(=O)[C@@](C)(N)COP(=O)(O)O)cc2)cc1` [compound 110], the pIC50 on S1P1 receptor was 7.64; at S1P3 receptor, 5.67.
Compound `C[C@](N)(CO)C(=O)Nc1ccc(OCCc2ccc(-c3ccoc3)cc2)cc1` [compound 157] showed a pIC50 at S1P1 receptor of 8.89.
On to `COc1cccc(Oc2ccc(NC(=O)[C@@](C)(N)CO)cc2)c1` [compound 59], for which the pIC50 on S1P1 receptor was 8.46; at S1P3 receptor, 7.30.
In the case of `CCCCCCCc1ccc(C(=O)N[C@@H](C)CO)cc1` [compound 127], the pIC50 was 7.25 on S1P1 receptor and 7.23 on S1P3 receptor.
For `C[C@](N)(CO)c1ncc(-c2ccc(OCCc3ccc(-c4ccccc4)cc3)cc2)[nH]1` [compound 148] the same measures were under 5.00 and under 5.00.
On to `Cc1ccccc1-c1ccc(CCOc2ccc(NC(=O)[C@@](C)(N)CO)cc2)cc1` [compound 152], for which the pIC50 on S1P1 receptor and on S1P3 receptor was under 5.00 in each case.
